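48-hour exposure; five concentrations; linearly interpolated endpoints. GI50 is the concentration that inhibits growth by half.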 The source made the active and inactive calls. Rule as the data show it: active = GI50 up to about 1.1 µM and inactive = higher.
Experiments:
Experiment in all cases: inhibition of tumour cell growth, NCI panel, 48 h
MDA-MB-231 = system: MDA-MB-231
HCT-116 = system: HCT-116
LOX IMVI = system: LOX IMVI
Malme-3M = system: Malme-3M
ACHN = system: ACHN
NCI-H23 = system: NCI-H23
OVCAR-8 = system: OVCAR-8
COLO 205 = system: COLO 205
M14 = system: M14
HL-60 = system: HL-60
CAKI-1 = system: CAKI-1
T47D = system: T47D
SW-620 = system: SW-620
MDA-MB-435 = system: MDA-MB-435
NCI-H522 = system: NCI-H522
786-0 = system: 786-0
SR = system: SR
SF-268 = system: SF-268
UACC-257 = system: UACC-257
HT-29 = system: HT-29
OVCAR-3 = system: OVCAR-3
Hs-578T = system: Hs-578T
CCRF-CEM = system: CCRF-CEM
K562 = system: K562
BT-549 = system: BT-549
SF-295 = system: SF-295
HOP-62 = system: HOP-62
UO-31 = system: UO-31
OVCAR-4 = system: OVCAR-4
SK-MEL-2 = system: SK-MEL-2
TK-10 = system: TK-10
UACC-62 = system: UACC-62
SK-MEL-28 = system: SK-MEL-28
KM12 = system: KM12
SF-539 = system: SF-539
NCI-H226 = system: NCI-H226
NCI-H460 = system: NCI-H460
EKVX = system: EKVX
HCT-15 = system: HCT-15
SNB-75 = system: SNB-75
SN12C = system: SN12C
IGROV-1 = system: IGROV-1
HCC 2998 = system: HCC 2998
A549 = system: A549
OVCAR-5 = system: OVCAR-5
NCI/ADR-RES = system: NCI/ADR-RES
A498 = system: A498
SNB-19 = system: SNB-19
MCF7 = system: MCF7
SK-MEL-5 = system: SK-MEL-5
PC-3 = system: PC-3
DU-145 = system: DU-145
RPMI-8226 = system: RPMI-8226
U-251 = system: U-251
RXF 393 = system: RXF 393
MDA-N = system: MDA-N
MOLT-4 = system: MOLT-4
HOP-92 = system: HOP-92
SK-OV-3 = system: SK-OV-3

Measured: GI50

S=c1nc(N2CCCCC2)c2cn[nH]c2[nH]1
inactive: MDA-MB-231 > 100 µM | HCT-116 56.6 µM | LOX IMVI 39.4 µM | Malme-3M 64.9 µM | ACHN 54.6 µM | NCI-H23 40.4 µM | OVCAR-8 64.9 µM | COLO 205 28.8 µM | M14 74 µM | HL-60 19.6 µM | CAKI-1 27.7 µM | T47D 59.6 µM | SW-620 57 µM | MDA-MB-435 46.1 µM | NCI-H522 16.7 µM | 786-0 88.5 µM | SR 14.5 µM | SF-268 78 µM | UACC-257 98.9 µM | HT-29 41.8 µM | OVCAR-3 54.8 µM | Hs-578T 57.4 µM | CCRF-CEM 10.4 µM | K562 29.9 µM | BT-549 26.1 µM | SF-295 59.6 µM | HOP-62 > 100 µM | UO-31 23.9 µM | OVCAR-4 93.5 µM | SK-MEL-2 20.1 µM | TK-10 39.2 µM | UACC-62 50.1 µM | SK-MEL-28 65.6 µM | KM12 29.5 µM | SF-539 52.6 µM | NCI-H226 > 100 µM | NCI-H460 42.3 µM | EKVX > 100 µM | SNB-75 > 100 µM | SN12C 79.8 µM | IGROV-1 22.1 µM | HCC 2998 44 µM | A549 76.7 µM | OVCAR-5 > 100 µM | NCI/ADR-RES > 100 µM | A498 > 100 µM | SNB-19 > 100 µM | MCF7 34.6 µM | SK-MEL-5 1.53 µM | PC-3 59.2 µM | DU-145 59.7 µM | RPMI-8226 12.2 µM | U-251 60.5 µM | RXF 393 91.8 µM
87.9 µM: HCT-15

O=[N+]([O-])c1cccc2nccc(NCCN3CCOCC3)c12
9.35 µM: HCT-15
inactive: MDA-MB-231 21.7 µM | HCT-116 13.4 µM | LOX IMVI 13.4 µM | Malme-3M 13.8 µM | ACHN 22.4 µM | NCI-H23 11.7 µM | MDA-N 16.7 µM | OVCAR-8 20.1 µM | COLO 205 19.6 µM | M14 15.9 µM | HL-60 10.6 µM | CAKI-1 2.6 µM | T47D 23 µM | SW-620 8.91 µM | MDA-MB-435 22.9 µM | NCI-H522 3.95 µM | 786-0 25.2 µM | SR 10.1 µM | SF-268 20.5 µM | UACC-257 10 µM | HT-29 13.5 µM | OVCAR-3 14.2 µM | Hs-578T 15.9 µM | CCRF-CEM 5.55 µM | MOLT-4 8.43 µM | K562 11.8 µM | SF-295 13.9 µM | HOP-62 15.5 µM | UO-31 27.2 µM | OVCAR-4 8.99 µM | SK-MEL-2 14.7 µM | TK-10 23.7 µM | UACC-62 > 10 µM | HOP-92 33.2 µM | SK-MEL-28 17.9 µM | KM12 10.5 µM | SF-539 20.3 µM | NCI-H226 10.2 µM | NCI-H460 6.87 µM | EKVX 10.7 µM | SNB-75 16.5 µM | SN12C 16.3 µM | IGROV-1 17.4 µM | HCC 2998 11.5 µM | A549 18.2 µM | OVCAR-5 21.4 µM | NCI/ADR-RES 29.4 µM | A498 13.2 µM | SNB-19 25.7 µM | SK-OV-3 35.2 µM | MCF7 9.46 µM | SK-MEL-5 10 µM | PC-3 9.64 µM | DU-145 41.7 µM | RPMI-8226 7.94 µM | U-251 22.2 µM | RXF 393 11.6 µM

O=C(Cn1c(-c2ccccc2)cc2ccccc21)N1CCOCC1
inactive: MDA-MB-231 34.2 µM | HCT-116 > 100 µM | LOX IMVI > 100 µM | Malme-3M > 100 µM | ACHN > 100 µM | NCI-H23 > 100 µM | MDA-N > 100 µM | OVCAR-8 > 100 µM | COLO 205 > 100 µM | M14 > 100 µM | HL-60 > 100 µM | CAKI-1 > 100 µM | T47D > 100 µM | SW-620 > 100 µM | MDA-MB-435 > 100 µM | NCI-H522 > 100 µM | 786-0 41.4 µM | SF-268 34.4 µM | UACC-257 > 100 µM | HT-29 > 100 µM | OVCAR-3 > 100 µM | Hs-578T > 100 µM | CCRF-CEM > 100 µM | MOLT-4 > 100 µM | K562 > 100 µM | SF-295 > 100 µM | HOP-62 32.7 µM | UO-31 > 100 µM | OVCAR-4 > 100 µM | SK-MEL-2 > 100 µM | TK-10 > 100 µM | UACC-62 > 100 µM | HOP-92 > 100 µM | SK-MEL-28 > 100 µM | KM12 > 100 µM | SF-539 67.1 µM | NCI-H226 > 100 µM | NCI-H460 > 100 µM | EKVX > 100 µM | SN12C > 100 µM | IGROV-1 > 100 µM | HCC 2998 > 100 µM | A549 > 100 µM | OVCAR-5 > 100 µM | NCI/ADR-RES > 100 µM | A498 > 100 µM | SNB-19 79.3 µM | SK-OV-3 > 100 µM | MCF7 > 100 µM | SK-MEL-5 > 100 µM | PC-3 61.1 µM | DU-145 > 100 µM | RPMI-8226 > 100 µM | U-251 45 µM | RXF 393 > 100 µM
> 100 µM: HCT-15
